Measured values as given in patent US20160083391A1, “TRICYCLIC PIPERAZINE DERIVATIVE” (Sunovion Pharmaceuticals Inc., priority 2014, published 2016).

Test system: PDE1
Assay: In vitro HTRF PDE1 inhibition assay
Assay type: biochemical
Details: HTRF cGMP assay, 100 nM cyclic GMP, PDE (1A3, 1B or 1C) with calmodulin, 45 minutes at 37° C.; isoform of the tabulated values not stated
Outline: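 Activities are given as IC50 bands (<1, 1-10, >10 μM) derived from a 665/615 nm time-resolved FRET readout after d2-cGMP/anti-cGMP cryptate detection. Enzymes PDE1A3, 1B or 1C plus calmodulin were incubated 45 min at 37 °C with 100 nM cGMP, 1% DMSO, CaCl2/MgCl2 Tris buffer pH 7.4.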

IC50 [nM] | Compound
1000 to 10000 | Cc1cnc(CN2CCn3c(nc4c(cnn4C(C)C)c3=O)C2)cn1 [Compound I-206, 1-Isopropyl-8-((5-methylpyrazin-2-yl)methyl)-6,7,8,9-tetrahydropyrazino[1,2-a]pyrazolo[3,4-d]pyrimidin-4(1H)-one]
1000 to 10000 | Cc1cnc(CN2CCn3c(nc4c(cnn4C4CCCC4)c3=O)C2)cn1 [Compound I-207, 1-Cyclopentyl-8-((5-methylpyrazin-2-yl)methyl)-6,7,8,9-tetrahydropyrazino[1,2-a]pyrazolo[3,4-d]pyrimidin-4(1H)-one]
< 1000 | O=c1c2cnn(C3CCOCC3)c2nc2n1CCN(c1ccc(Cl)cc1)C2 [Compound I-212, 8-(4-Chlorophenyl)-1-(tetrahydro-2H-pyran-4-yl)-6,7,8,9-tetrahydropyrazino[1,2-a]pyrazolo[3,4-d]pyrimidin-4(1H)-one]
< 1000 | CC(C)Cc1nnc2c(=O)n3c(nn12)CN(Cc1ccc(Cl)cc1)CC3 [Compound I-215, 7-(4-Chlorobenzyl)-3-isobutyl-8,9-dihydro-6H-pyrazino[2,1-c][1,2,4]triazolo[3,4-f][1,2,4]triazin-11(7H)-one]
1000 to 10000 | CC(C)Cc1nnc2c(=O)n3c(nn12)CN(CCc1ccccc1)CC3 [Compound I-227, 3-Isobutyl-7-phenethyl-8,9-dihydro-6H-pyrazino[2,1-c][1,2,4]triazolo[3,4-f][1,2,4]triazin-11(7H)-one]
< 1000 | COc1ccc(CN2CCn3c(nn4c(C5CCOCC5)ncc4c3=O)C2)cc1 [Compound I-234, 7-(4-Methoxybenzyl)-3-(tetrahydro-2H-pyran-4-yl)-8,9-dihydro-6H-imidazo[5,1-f]pyrazino[2,1-c][1,2,4]triazin-11(7H)-one]
< 1000 | O=c1c2cnc(C3CCOCC3)n2nc2n1CCN(Cc1ccc(Cl)cc1)C2 [Compound I-235, 7-(4-Chlorobenzyl)-3-(tetrahydro-2H-pyran-4-yl)-8,9-dihydro-6H-imidazo[5,1-f]pyrazino[2,1-c][1,2,4]triazin-11(7H)-one]
< 1000 | CC(C)n1ncc2c(=O)n3c(nc21)CN(c1ccc(C#N)cc1)CC3 [Compound I-237, 4-(1-Isopropyl-4-oxo-6,7-dihydropyrazino[1,2-a]pyrazolo[3,4-d]pyrimidin-8(1H,4H,9H)-yl)benzonitrile]
< 1000 | CC(C)n1ncc2c(=O)n3c(nc21)CN(c1ccc(C(F)(F)F)cc1)CC3 [Compound I-239, 1-Isopropyl-8-(4-(trifluoromethyl)phenyl)-6,7,8,9-tetrahydropyrazino[1,2-a]pyrazolo[3,4-d]pyrimidin-4(1H)-one]
< 1000 | CC(C)c1ncc2c(=O)n3c(nn12)CN(c1ccc(C(F)(F)F)cc1)CC3 [Compound I-240]

Further lines, the molecule ahead of its results:

Compound | IC50 [nM]
O=c1c2cnc(C3CCCC3)n2nc2n1CCN(Cc1cnccn1)C2 [Compound I-205, 3-Cyclopentyl-7-(pyrazin-2-ylmethyl)-8,9-dihydro-6H-imidazo[5,1-f]pyrazino[2,1-c][1,2,4]triazin-11(7H)-one] | < 1000
Cc1cnc(CN2CCn3c(nn4c(C(C)C)ncc4c3=O)C2)cn1 [Compound I-208, 3-Isopropyl-7-((5-methylpyrazin-2-yl)methyl)-8,9-dihydro-6H-imidazo[5,1-f]pyrazino[2,1-c][1,2,4]triazin-11(7H)-one] | 1000 to 10000
Cc1cnc(CN2CCn3c(nn4c(C5CCCC5)ncc4c3=O)C2)cn1 [Compound I-209, 3-Cyclopentyl-7-((5-methylpyrazin-2-yl)methyl)-8,9-dihydro-6H-imidazo[5,1-f]pyrazino[2,1-c][1,2,4]triazin-11(7H)-one] | < 1000
COc1ccc(CN2CCn3c(nc4c(cnn4C4CCOCC4)c3=O)C2)cc1 [Compound I-210, 8-(4-Methoxybenzyl)-1-(tetrahydro-2H-pyran-4-yl)-6,7,8,9-tetrahydropyrazino[1,2-a]pyrazolo[3,4-d]pyrimidin-4(1H)-one] | 1000 to 10000
O=c1c2cnn(C3CCOCC3)c2nc2n1CCN(Cc1ccc(Cl)cc1)C2 [Compound I-211, 8-(4-Chlorobenzyl)-1-(tetrahydro-2H-pyran-4-yl)-6,7,8,9-tetrahydropyrazino[1,2-a]pyrazolo[3,4-d]pyrimidin-4(1H)-one] | < 1000
COc1ccc(CN2CCn3c(nn4c(CC(C)C)nnc4c3=O)C2)cc1 [Compound I-213, 3-Isobutyl-7-(4-methoxybenzyl)-8,9-dihydro-6H-pyrazino[2,1-c][1,2,4]triazolo[3,4-f][1,2,4]triazin-11(7H)-one] | < 1000
CC(C)Cc1nnc2c(=O)n3c(nn12)CN(Cc1ccccc1)CC3 [Compound I-214, 7-Benzyl-3-isobutyl-8,9-dihydro-6H-pyrazino[2,1-c][1,2,4]triazolo[3,4-f][1,2,4]triazin-11(7H)-one] | 1000 to 10000
CC(C)c1nnc2c(=O)n3c(nn12)CN(Cc1ccc(Cl)cc1)CC3 [Compound I-221, 7-(4-Chlorobenzyl)-3-isopropyl-8,9-dihydro-6H-pyrazino[2,1-c][1,2,4]triazolo[3,4-f][1,2,4]triazin-11(7H)-one] | 1000 to 10000
COc1ccc(CN2CCn3c(nn4c(C(C)C)nnc4c3=O)C2)cc1 [Compound I-222, 3-Isopropyl-7-(4-methoxybenzyl)-8,9-dihydro-6H-pyrazino[2,1-c][1,2,4]triazolo[3,4-f][1,2,4]triazin-11(7H)-one] | 1000 to 10000
CC(C)c1nnc2c(=O)n3c(nn12)CN(Cc1ccccc1)CC3 [Compound I-223, 7-Benzyl-3-isopropyl-8,9-dihydro-6H-pyrazino[2,1-c][1,2,4]triazolo[3,4-f][1,2,4]triazin-11(7H)-one] | 1000 to 10000
CC(C)Cc1nnc2c(=O)n3c(nn12)CN(Cc1ccccn1)CC3 [Compound I-224, 3-Isobutyl-7-(pyridin-2-ylmethyl)-8,9-dihydro-6H-pyrazino[2,1-c][1,2,4]triazolo[3,4-f][1,2,4]triazin-11(7H)-one] | 1000 to 10000
CC(C)c1nnc2c(=O)n3c(nn12)CN(CCc1ccccc1)CC3 [Compound I-225, 3-Isopropyl-7-phenethyl-8,9-dihydro-6H-pyrazino[2,1-c][1,2,4]triazolo[3,4-f][1,2,4]triazin-11(7H)-one] | 1000 to 10000
CC(C)c1nnc2c(=O)n3c(nn12)CN(Cc1ccccn1)CC3 [Compound I-226, 3-Isopropyl-7-(pyridin-2-ylmethyl)-8,9-dihydro-6H-pyrazino[2,1-c][1,2,4]triazolo[3,4-f][1,2,4]triazin-11(7H)-one] | > 10000
CC(C)Cc1nnc2c(=O)n3c(nn12)CN(Cc1ccncc1)CC3 [Compound I-228, 3-Isobutyl-7-(pyridin-4-ylmethyl)-8,9-dihydro-6H-pyrazino[2,1-c][1,2,4]triazolo[3,4-f][1,2,4]triazin-11(7H)-one] | 1000 to 10000
O=c1c2cnc(C3CCOCC3)n2nc2n1CCN(c1ccc(Cl)cc1)C2 [Compound I-236, 7-(4-Chlorophenyl)-3-(tetrahydro-2H-pyran-4-yl)-8,9-dihydro-6H-imidazo[5,1-f]pyrazino[2,1-c][1,2,4]triazin-11(7H)-one] | < 1000
CC(C)c1ncc2c(=O)n3c(nn12)CN(c1ccc(C#N)cc1)CC3 [Compound I-238, 4-(3-Isopropyl-11-oxo-8,9-dihydro-6H-imidazo[5,1-f]pyrazino[2,1-c][1,2,4]triazin-7(11H)-yl)benzonitrile] | < 1000
